Assay results as given in patent US20240216281A1, “MANUFACTURING METHOD OF MEDICATION” (YUNG SHIN PHARM. IND. CO., LTD., priority 2022, published 2024).

Experiment: particle size distribution (PSD) of crystals within the medication
Type: physicochemical
Conditions: first embodiment: dry powder filling technology

Row | 10% of the crystals having a particle size (D10) of less than | 50% of the crystals having a particle size (D50) of less than | 90% of the crystals having a particle size (D90) of less than | 90% of the crystals having a particle size (D90) of less than (unit not given) | SMILES
1 | less than 0.648 μm | less than 14.061 μm | less than 215.136 μm | – | OCc1ccc(-c2nn(Cc3ccccc3)c3ccccc23)o1 [YC-1 compound]
2 | less than 4.444 μm | less than 11.189 μm | – | less than 30.504 | CC1(C)O[C@@H]2C[C@H]3[C@@H]4CCC5=CC(=O)C=C[C@]5(C)[C@@]4(F)[C@@H](O)C[C@]3(C)[C@]2(C(=O)CO)O1 [triamcinolone acetonide]
